We go through three molecules from US20200345008A1, “Increased grape yields with brassinosteroid application” (priority 2019, published 2020).

Series [1] has as its system grapes of the variety Flame Seedless. It counts as in vivo. An excerpt: Treatment (HBR) was twice applied to grapes of the variety Flame Seedless. Treatments consisted of either HBR or ProGibb (ProGibb 4%, a plant growth regulator commonly used on table grapes for berry thinning and/or increasing berry size). At the first application (Day 0) the grapes were approximately 3 mm in diameter. The second application was seven days later (Day 7) when the grapes were approximately 6 mm in diameter. The HBR was applied with a backpack mist blower at a rate if 100 gallons per acre. Grapes were evaluated for Cluster Color Rating and Cluster Color Intensity (Hue) on about Day 65 by comparing test subjects with the control of condition 1. The same data set was analyzed for berry weight, berry firmness, Brix units, and phytotoxicity.

The subject of series [2] is grapes (var. Scarlet Royal). Put plainly: Experiment 2: HBR spray application on Scarlet Royal grapes. Type of series: in vivo. The settings on record: for berry hue / cluster color / soluble solids: evaluations Days 54-97; for ripening responses: ethephon standard treatment (Day 45), versus untreated check. The source says:
Homobrassinolide (HBR) was applied on grapes (var. Scarlet Royal) at late bloom (Day 0), or at late bloom (Day 0) and again at approximately 1 week after berry set (Day 7). Grapes were approximately 3 mm in diameter at Day 0 and 6 mm in diameter at Day 7. HBR was applied at rates of 0.5 ppm/aiA, 1.0 ppm/aiA, and 2.0 ppm/aiA. Spray applications were made using a backpack mistblower to simulate commercial airblast applications at 100 gpa. Controls were an untreated group, and a group that received the standard treatment with Ethephon approximately two weeks after color break (Day 45). Evaluations were made at Days 54, 66, 75, 82, 90, and 97. All treated groups also received Latron B1956 which was added to each tank mix as a surfactant (0.125% v/v). Soluble solids, cluster color, and berry hue were enhanced by HBR and the ethephon standard treatment. […] Results are illustrated in Table 3 (FIG. 4).

The next series relates to grapes. The settings on record: Lenahan et al., 2006; cited from earlier work.
The mark [3] stands for this setting: HBR on Day 0 at 2.5 ppm/aiA, versus control, evaluated about Day 65.
Where [4] appears, read: two applications, or single application of 1.0 or 2.0 ppm/aiA, versus single application of 0.5 ppm/aiA HBR.

For `CC[C@@H](C(C)C)C(O)C(O)[C@@H](C)[C@H]1CC[C@H]2[C@@H]3COC(=O)[C@H]4C[C@H](O)[C@H](O)C[C@]4(C)[C@H]3CC[C@]12C` (stereo in doubt) [HBR, homobrassinolide], in series [1] (HBR on Day 0), the “degrees Brix of the grapes” value is recorded as “tended to increase”. In series [1] (setting [3]), the “color intensity per reddish cluster” value is listed as “more intense color per reddish cluster than control” and the “percentage of clusters per plot that were noticeably reddish” value was “increased the percentage of clusters per plot that were noticeably reddish”. In series [1] (HBR treatment, versus control), the “color intensity within each identified reddish cluster” value is “increased the color intensity” and the “percentage of reddish grapes within each identified reddish cluster” value is recorded as “increased the percentage of reddish grapes”. The phytotoxicity result in series [1] (in vivo) is “no observed phytotoxicity”. For the same molecule, in series [2] (Scarlet Royal), the berry hue result is listed as “enhanced”, the cluster color entry was “enhanced” and the soluble solids result is “enhanced”. Further, the “efficacy ranking of treatments” value in series [2] (double spray of 2 ppm ai HBR, compared to the ethephon standard treatment) is reported as “most efficacious treatment”. Also, in series [2] (double spray of 2 ppm ai HBR), the ripening responses entry is given as “significantly more effective than the untreated check”. Further, the crop injury entry in series [2] (in vivo) was “No crop injury was observed”. The rate response result in series [2] (single spray timing treatments (0.5, 1.0, 2.0 ppm/aiA) versus untreated check) is given as “positive rate response”. Moreover, in series [2] (setting [4]), the hue entry is given as “greater hue”; the “percentages of clusters of color” value is “increased percentages of clusters of color”; the “soluble solids and Brix degrees” value is “increased soluble solids and Brix degrees”.

Regarding `C=C1C[C@]23C[C@@]1(O)CC[C@H]2[C@@]12C=C[C@H](O)[C@@](C)(C(=O)O1)[C@H]2[C@@H]3C(=O)O` [GA3, gibberellic acid], the firmness of grapes result in the series with grapes is “increase firmness”.

`O=P(O)(O)CCCl` [ethephon, Ethephon, reference compound]: in series [2] (Scarlet Royal), the berry hue result is listed as “enhanced”, the cluster color result is listed as “enhanced” and the soluble solids entry was “enhanced”. Moreover, in series [2] (all treatments, Scarlet Royal), the crop injury entry is given as “No crop injury was observed”. Further, in series [2] (double spray of 2 ppm ai HBR), the ripening responses entry is recorded as “significantly more effective than the untreated check”.
